Measured values taken from paper PMC3772838, “Preclinical Development of a Novel Class of CXCR4 Antagonist Impairing Solid Tumors Growth and Metastases” (PLoS ONE, 2013).

Experiments:
[1] = tested on: CXCR7; assay: Anti-CXCR7 antibody (clone 11G8) binding in CXCR7 overexpressing cells; parameters: species or system human; conditions: MCF-7 cells; peptides 10 µM, CXCL11 100 nM, 30 min pre-incubation; Figure S3
Protocol: [The procedure below names another target; the source says it served here with some conditions changed.] (§1) CXCR4 binding was evaluated as previously described. Briefly 5×10^5 CCRF–CEM cells were pre-incubated with 10 µM peptides or AMD3100 in binding buffer (PBS 1× plus 0.2% BSA and 0.1% NaN3) for 30 minutes at 37°C, 5% CO2 and then labeled for 30 minutes with anti-CXCR4 PE-antibody (FAB170P, clone 12G5, R&D Systems, Minneapolis, MN, USA). The cells were analyzed by FACS Canto II cytofluorometer (Becton Dickinson Immunocytometry Systems, Mountain View, CA, USA).
(§2) Fluo-3AM and Pluronic acid were added to each sample to increase Fluo-3AM solubility and improve dye loading into the cells. (TIF) Click here for additional data file.

[2] = tested on: CXCR3; assay: Anti-CXCR3 antibody (clone 1C6/CXCR3) binding in CXCR3 overexpressing cells; parameters: species or system human; conditions: COLO205 cells; peptides 10 µM, CXCL11 100 nM, 30 min pre-incubation; Figure S3
Protocol: [The procedure below names another target; the source says it served here with some conditions changed.] as §1, §2

[3] = tested on: SN12C-EGFP renal cancer cells; assay: SN12C-pEGFP subcutaneous xenograft tumor growth; type: in vivo, CD1 nude mice; conditions: IP 10 days, peptides 2 mg/kg, AMD3100 1.25 mg/kg; measured a week later by fluorescence stereomicroscope; control 65.97±35.1; average
Protocol: (§3) All mice were obtained from Harlan (Bar Harbor, ME, USA) and their care was in accord with institutional guidelines. Twenty-five 6-8-week-old female C57BL/6 mice were inoculated into the tail vein with 5×10^5 B16–CXCR4 cells pre-treated for 30 minutes with peptide S (10 µM), peptide R (10 µM), peptide I (10 µM), or AMD3100 (10 µM). Six hours later intraperitoneal (IP) treatment started with AMD3100 (1.25 mg/kg) or each peptide (2 mg/kg) in sterile PBS once a day for 10 days. A week later the mice were sacrificed. The experiment was repeated three times. The lung metastases assay was also conducted with K7M2 murine osteosarcoma cells. Twenty-five 6-8-week-old female Balb/c mice were injected via tail vein with 2.5×10^5 K7M2 cells pre-treated for 30 minutes with AMD3100 (10 µM), peptide S (10 µM), peptide R (10 µM), peptide I (10 µM) and animals were treated IP daily for 15 days with 2.5 mg/kg for AMD3100 group and 10 mg/kg for each peptide groups. A week later the mice were sacrificed. Xenograft tumor growth was evaluated using pEGFP-SN12C cells in exponential growth phase subcutaneously injected into the right flank of twenty-five 6-8-week-old female CD1 nude mice. 2×10^6 SN12C-pEGFP were injected in the right flank of each mouse and treated with AMD3100 (1.25 mg/kg) and peptides (2 mg/kg) for 10 days ip. A week later mice were euthanized and tumor volume evaluated through Leica MacroFluo fluorescence stereomicroscope (Leica microsystem, Houston, TX). The experiment was repeated three times. The Istituto Nazionale per lo Studio e la Cura dei Tumori, Fondazione Giovanni Pascale Independent Etical Comettee approved the study (CEI/600/12).
6 to 8-week-old female CD1 nude mice were injected subcutaneously with 2×10^6 pEGFP-SN12C cells pre-treated with 10 µM AMD3100 or 10 µM of each peptide. Beginning the following day mice were further treated intraperitoneally for 10 days with 1.25 mg/kg AMD3100 or 2 mg/kg of peptides R, I or S. A week later mice were euthanized and tumor volume evaluated directly from the flank of mice using a Leica MacroFluo fluorescence stereomicroscope (Leica microsystem, Houston, TX) (A). The experiments were repeated three times. B. SN12C-PEGFP cells migration toward CXCL12 in the presence of AMD3100 or Peptide R, S and I.

[4] = tested on: P-ERK1/2; assay: CXCL12-induced p-ERK induction (immunoblotting); type: cell-based, human; conditions: PES43 cells serum-starved, CXCL12 100 ng/ml, after 5 minutes
Protocol: Cells were homogenized in lysis buffer (40 mM Hepes pH 7,5, 120 mM NaCl, 5 mM MgCl2, 1 mM EGTA, 0,5 mM EDTA, 1% Triton X-100) containing protease (Complete Tablets- EDTA-free, Roche) and phosphatase inhibitors (20 mM α-glycerol-3-phosphate, 2,5 mM Na-pyrophosphate). The following primary antibodies were used: anti-p-ERK (sc7383, Santa Cruz Biotechnology, Inc., Santa Cruz, CA, USA) and anti-ERK2 (sc 154G, Santa Cruz Biotechnology CA, USA). P-Erk induction was plotted as ratio P-Erk in the presence of CXCL12 (100 ng/ml)/P-Erk in serum free.
(§4) Experiments were conducted using PES43 cells. (A) Migration was assayed in 24-well Transwell chambers using inserts with 8-µm pore membrane. […] Migrated cells on the lower surface were fixed, stained with H&E and counted microscopically. The results are expressed as the migration index relative to migration in presence of BSA alone. […] Images were acquired with OKO Time Lapse. […] PES43 cells were serum-starved and incubated with CXCL12 (100 ng/ml) alone or in presence of AMD3100/peptides. Each peptide was tested in at least three different experiments. Double tailed T-Test was used for statistical analyses. Differences were considered significant at P<0.05 compared to control.
PES43 cell lines were serum starved for 16 hours. […] (TIF) Click here for additional data file.

[5] = tested on: B16-CXCR4 murine melanoma cells; assay: B16-CXCR4 melanoma lung metastases model; type: in vivo, C57BL/6 mice; conditions: cells pre-treated 30 min with 10 µM, IP once a day for 10 days, peptides 2 mg/kg, AMD3100 1.25 mg/kg
Protocol: as §3
(A) B16-CXCR4 tumor cells pre-treated for 30 minutes with AMD3100 (10 µM), peptide R (10 µM), peptide I (10 µM), or peptide S (10 µM) were inoculated into the tail vein of C57/B female mice and the mice were further treated intraperitoneally for 10 days with 1.25 mg/kg AMD3100, or 2 mg/kg peptide R, peptide I or peptide S. Gross examination of representative lungs; (B) Graphical representation of the number of lung metastases in treated mice. Double tailed T-Test was used for statistical analyses. The experiments were repeated three times.

[6] = tested on: CXCR4; assay: CXCL12-induced calcium mobilization assay (Fluo-3 AM); type: cell-based, human; conditions: CCRF-CEM cells, 10 µM peptide, percent of fluorescence with CXCL12 alone; at least three experiments
Protocol: For the calcium efflux studies a 2 mg/mL stock solution of Fluo-3 acetoxymethylester (Invitrogen, Carlsbad, CA) in anhydrous DMSO was used. […] CCRF–CEM cells were resuspended in cell loading buffer (PBS, 1% FCS, 1 mmol/L MgCl2, and 1 mmol/L CaCl2) at 5×10^5 cells/mL. Fluo-3AM and Pluronic acid were added to each sample to increase Fluo-3AM solubility and improve dye loading into the cells. Baseline calcium efflux was established, then chemokines were added as indicated and chemokine-induced calcium efflux was measured.
(§5) (A) The amount of peptides or AMD3100 bound was assessed indirectly by flow cytometry using the PE-labelled anti-CXCR4 antibody (clone 12G5). Results are expressed as the percent antibody bound. (B) The Ca^2+ influx assay was performed using CCRF-CEM cells and Fluo-3 AM calcium indicator. CCRF-CEM cells were incubated 30 minutes at 37°C with Fluo-3 AM and 15 minutes with AMD3100 (10 µM)/peptides (10 µM) and then treated with CXCL12. Results are expressed as the percent of Fluo-3 AM fluorescence in presence of CXCL12 alone. Each peptide was tested in at least three different experiments. Double tailed T-Test was used for statistical analyses. Differences were considered significant at P<0.05 compared to control. Control (CTRL).

[7] = tested on: PES43 human melanoma cells; assay: CXCL12-mediated wound closure assay; type: cell-based; conditions: 6 hours post-wounding
Protocol: (§6) Migration was assayed in 24-well Transwell chambers (Corning Inc., Corning, NY) using inserts with an 8-µm pore membrane. Membranes were precoated with collagen (human collagen type I/III) and fibronectin (20 µg/mL each). […] After 16 h incubation, cells on the upper surface of the filter were removed using a cotton wool swab; migration of cells in migration media alone was compared with migration in media containing CXCL12. The cells were counted in ten different fields (original magnification ×40). The migration index was defined as the ratio between migrating cells in the experimental group and migrated cells in the control group. For the wound closure assay, tested cells were allowed to reach confluence in six-well plates containing serum-depleted growth medium and scratched with pipette tips to make wounds. The wound closure was observed microscopically 6 hours post-wounding (OKO Time Lapse).
as §4

[8] = tested on: CXCR4; assay: Competition with 12G5 anti-CXCR4 antibody binding (flow cytometry); parameters: species or system human; conditions: CCRF-CEM cells, 10 µM peptide, 30 min pre-incubation at 37°C, PE-labelled 12G5, flow cytometry; at least three experiments
Protocol: as §1, §5

[9] = tested on: PES43 human melanoma cells; assay: CXCL12-dependent Transwell migration of PES43 cells; type: cell-based; conditions: 100 ng/mL CXCL12 in lower chamber, 16 h, tested 10 nM, 100 nM, 1 µM, 10 µM
Protocol: as §6, §4

CXCL11: specific ligand (chemokine) that inhibited antibody binding to CXCR3 or CXCR7
binding to CXCR7 (anti-CXCR7 antibody) [1]: inhibited
binding to CXCR3 (anti-CXCR3 antibody) [2]: inhibited

c1cc(CN2CCCNCCNCCCNCC2)ccc1CN1CCCNCCNCCCNCC1 [AMD3100, reference compound]
tumor volume of SN12C-GFP xenograft [3]: 35.53±10.42 mm^3
CXCL12-mediated p-ERK induction [4]: reduced
fold reduction of the number of lung metastases vs control [5]: 5.6 fold
number of lung metastases ([5]; control 8.4±3.49, average): 1.5±2.9

Arg-Ala-[Cys-Arg-Tyr-Trp-Cys] [Peptide T]
CXCL12-induced calcium efflux (Fluo-3 AM fluorescence) [6]: 33.65 % of control
CXCL12-mediated wound healing [7]: delayed
association of the 12G5-CXCR4 antibody to the receptor [8]: 22 % of control
concentration at which CXCL12-dependent migration was inhibited [9]: ≤ 10 nM
CXCL12-mediated p-ERK induction [4]: not
